The values that follow come from ChEMBL document CHEMBL4392883, “Konamycins A and B and Rubromycins CA1 and CA2, Aromatic Polyketides from the Tunicate-Derived Streptomyces hyaluromycini MB-PO13T” (2019).

Each structure is given as a SMILES string. In brackets after ≈: the same amount, converted by molar mass.

Holding throughout (type): functional
A short description of assay [1]: Antioxidant activity assessed as superoxide dismutase-like activity measured after 20 mins by WST-based assay.
Assay [2] is described as follows: Antioxidant activity assessed as DPPH radical scavenging activity.
The next assay relates to Kluyveromyces marxianus. The experiment in a line: Antimicrobial activity against Kluyveromyces fragilis ATCC 8635 measured after 20 hrs. The settings on record: ATCC 8635, 20 h.
The test system of another assay is Enterococcus faecalis. The experiment in a line: Antimicrobial activity against Enterococcus faecalis NBRC 100480 measured after 20 hrs.
For another assay, the system named is Kocuria rhizophila. Put plainly: Antimicrobial activity against Kocuria rhizophila ATCC 9341 measured after 20 hrs. As to conditions: DC2201 .
Assay [3] has as its system Mycolicibacterium smegmatis. The experiment in a line: Antimicrobial activity against Mycobacterium smegmatis NBRC 3207 measured after 20 hrs. As to conditions: NBRC 3207, 20 h.
Another assay relates to Bacillus cereus. The experiment in a line: Antimicrobial activity against Bacillus cereus NBRC 15305 measured after 20 hrs. The settings on record: NBRC 15305, 20 h.
A further assay concerns Escherichia coli. Put plainly: Antimicrobial activity against Escherichia coli NIH-JC2 measured after 20 hrs. The settings on record: NIH-JC2, 20 h.
In a further assay the test system is Staphylococcus aureus. The experiment in a line: Antimicrobial activity against Staphylococcus aureus IFO 12732 measured after 20 hrs. The settings on record: IFO 12732, 20 h.
In the next assay the test system is Candida albicans. Put plainly: Antimicrobial activity against Candida albicans NBRC 1594 measured after 20 hrs. The settings on record: NBRC 1594, 20 h.

Turning to `CC(=O)O[C@H]1C2=C(C=C3C(=O)c4c(ccc([C@H]5CC[C@H](O)[C@@H](C)O5)c4O)C(O)=C32)C(=O)[C@@](C)(O)[C@@H]1OC(=O)CCC(=O)O`, the SC50 turned out to be 66 µM in assay [1] and 21 µM in assay [2].

By MIC is commonly meant the lowest concentration found to suppress growth. A higher MIC goes with weaker potency. `COC1=CC(=O)c2c(O)c3c(c(O)c2C1=O)O[C@@]1(CCc2cc4cc(C(=O)O)oc(=O)c4c(O)c2O1)C3`: the MIC was 12.5 µg/mL (≈ 24.6 µM) in the assay on Kluyveromyces marxianus; 100 µg/mL (≈ 197 µM) in the assay on Enterococcus faecalis; 12.5 µg/mL (≈ 24.6 µM) in the assay on Kocuria rhizophila; 3.1 µg/mL (≈ 6.1 µM) in [3]; 12.5 µg/mL (≈ 24.6 µM) in the assay with Bacillus cereus; more than 100 µg/mL against Escherichia coli. Besides, the minimal inhibitory concentration (MIC) in the assay with Staphylococcus aureus came to 0.2 µg/mL (≈ 0.393 µM); in the assay with Candida albicans it was 6.3 µg/mL (≈ 12.4 µM).

On to `COC1=CC(=O)c2c(O)c3c(c(O)c2C1=O)O[C@@]1(CCc2cc4cc(C(=O)O)oc(=O)c4c(O)c2O1)[C@H]3O`, for which the MIC against Kluyveromyces marxianus was more than 100 µg/mL; with Enterococcus faecalis, more than 100 µg/mL; against Kocuria rhizophila, 50 µg/mL (≈ 95.3 µM); in [3] it was 12.5 µg/mL (≈ 23.8 µM); in the assay on Bacillus cereus it was 50 µg/mL (≈ 95.3 µM); against Escherichia coli, more than 100 µg/mL. For the same molecule, the values for the MIC with Staphylococcus aureus and in the assay on Candida albicans were 0.4 µg/mL (≈ 0.763 µM) and more than 100 µg/mL, respectively.

Take `Cc1c(C)c2c(c(C)c1O)CCC(C)(C(=O)O)O2` (stereo not given): the SC50 in assay [2] was determined as 9 µM.

As for `O=C(O)c1cc(O)c(O)c(O)c1`, the SC50 in assay [1] was 102 µM.
